Measurements reported in US9913817B2, “Methods for preventing or reducing colon carcinogenesis” (Nogra Pharma Limited, priority 2008, dated 2018).

Assays:
Assay type in all cases: cell-based
HCT116 A2.1 cells [1] = experiment: EGFP-based mutation rate / replication fidelity assay (Example 3)
Experimental: A EGFP-based assay to determine the changes in mutation rate upon incubation with various concentrations of the compounds was used to test whether compounds improve the replication fidelity. Briefly, 1×10^3 EGFP negative HCT116 A2.1 cells were sorted into 24-well plates on a FACS Aria. 24 hours later cells were treated with the compounds for a period of 7 days and the mutant fraction was measured by flow cytometry.

HCT116 cells = experiment: Cell cycle analysis by BrdU staining, HCT116; settings: 10 mM-40 mM; 72 hour treatment
Experimental: BrdU staining was used to analyze cell cycle changes in HCT116 and HT29 cells upon 72 hour treatment with compound 39. Data represent the mean values of 3 independent experiments (* indicates a p<0.05 compared to control)

HCT116 A2.1 cells [2] = experiment: EGFP-based mutation rate assay at a (CA)13 repeat (Example 4); settings: FIG. 4
Experimental: A EGFP-based assay similar to Example 3 was used to determine the changes in mutation rate upon incubation with various concentrations of disclosed compounds and to test whether the compounds improve the replication fidelity. A EGFP based assay was used to determine the changes in mutation rate at a (CA)13 repeat upon incubation with various concentrations of the compounds. Briefly, 1×10^3 EGFP negative HCT116 A2.1 cells were sorted into 24-well plates on a FACS Aria. 24 hours later cells were treated with the compounds for a period of 7 days. The total cell number (c) and the EGFP-positive fraction (mutant fraction (MF)) were analyzed by flow cytometry. The mutation rate (m/(CA)13/generation (gen) was estimated by m=MF/(gen+1) and gen=log 2(c/1000×cloning efficiency). The transient mutant (M1) and definitive mutant (M2) cells were distinguished.

[3] = system: superoxide (O2−) released by activated neutrophils (PMN); experiment: Superoxide scavenging, O2− assay with PMA-activated neutrophils, 90 min time course (Example 2); settings: at the investigated concentrations; 100 nM PMA; measured every 15 min for 90 min; FIG. 2A/2B
Experimental: Compounds 14 and 34 were tested for their potential to scavenge superoxide (O2^−) released by activated neutrophils (PMN) using a standardized O2^− assay, similar to Example 1. Activated neutrophils (PMN) were used as O2^− donors. Briefly, 1×10^6 freshly isolated neutrophils were activated with 100 nM phorbol-myristate-acetate (PMA). The O2^− release was measured every 15 min for a 90 min period by lucigenin amplified chemiluminescence on a luminometer. Either non-activated PMNs or activated PMNs incubated with superoxide dismutase (2000 U/ml, SOD) was used as a control. Experiments were carried out in triplicates

CCOC(Cc1ccc(N)cc1)C(=O)O (racemic) [compound 39, (±)-2-ethoxy-3-(4′-aminophenyl) propionic acid]
cell growth (in words) (HCT116 A2.1 cells [1]; 20 mM, 7 days): reduced cell growth
effect on M1 (in words) (HCT116 A2.1 cells [1]; 20 mM, FIG. 3C, comparable to the effect of aspirin): increase of M1
effect on mutant fraction M1 or M2 (in words) (HCT116 A2.1 cells [1]; 7 days, FIG. 3C): did not reduce the mutant fraction M1 or M2
cell cycle distribution (in words) (HCT116 cells): did not induce a significant change
number of M1 (transient mutant) cells (in words) (HCT116 A2.1 cells [2]; 10 mM up to 40 mM, p<0.05): significantly lowered the number of M1 cells
permanent mutant M2 population (in words) (HCT116 A2.1 cells [2]; 40 mM): significant reduction

COc1ccc(N)cc1C(=O)NO [compound 14]
superoxide scavenging properties (in words) [3]: significant scavenging properties

CC1(C)OC(=O)c2cc(N)ccc2O1 [compound 28]
changes in mutation rate (in words) (HCT116 A2.1 cells [1]; concentrations up to 1 mM, FIG. 3B): does not appear to cause significant changes
